Measurements published in patent US7772240B2, “Trans-1(6-chloro-3-phenylindan-1-yl)-3,3-dimethylpiperazine” (H. Lundbeck A/S, priority 2003, dated 2010).

Columns and labels:
human CYP2D6 = biological target: T1, human CYP2D6 (Homo sapiens, UniProt P10635); experiment: CYP2D6 inhibitor assay (recombinant microsomes, AMMC substrate); format: in vitro ADME; details: result in words
T1 construct: purchased BD Biosciences (Gentest) 456217; host or cells: baculovirus/insect cells
Description: Principle: The inhibition of human CYP2D6 is assessed using microsomes prepared from baculovirus/insect cells cDNA expressing CYP2D6 as enzyme sources and the specific CYP2D6 substrate AMMC (3-[2-(N,N-diethyl-N-methylammonium)-ethyl]-7-methoxy-4-methylcoumarin). AMMC is O-demethylated to AHMC (3-[2-(N,N-diethylamino)ethyl]-7-hydroxy-4-methylcoumarin) which is detected by measuring appearance of fluorescence.
Microsomes prepared from baculovirus/insect cells cDNA expressing CYP2D6 were obtained from BD Biosciences (Gentest 456217). Fluorescence measured Ex. (405 nm) Em. (465 nm) by a SpectroFluor Plus Plate Reader (Tecan Nordic). Incubations with the recombinant CYP2D6 micrsomes contained 1.5 pmol of the recombinant CYP2D6 in 0.2 ml total volume 100 mM phosphate buffer at pH 7.4 containing […] AMMC (3-[2-(N,N-diethyl-N-methylammonium)-ethyl]-7-methoxy-4-methylcoumarin) with a low NADPH-regenerating system consisting of 0.0082 mM NADP^+, 0.41 mM glucose 6-phosphate, 0.41 mM magnesium chloride and 0.4 units/ml glucose-6-phoshate dehydrogenase. The incubation time was 45 min and the incubations were quenched by addition of 0.075 ml 80% Acetonitrile 20% 0.5 M Tris base. All chemicals were of analytical grade from Sigma (St. Louis, Mo.). […] The IC50 values were calculated by linear interpolation.

D1/D2 = details: cited from earlier work
D1 and D2 = details: cited from earlier work
5-HT2 = details: cited from earlier work
α1 adrenoceptors = details: cited from earlier work
human D2 receptor [1] = biological target: T2, human D2 receptor (Homo sapiens, UniProt P14416); experiment: DA D2 receptor binding ([3H]-Spiperone)
T2 construct: expressed in transfected cells; host or cells: CHO cells
Description: (§1) For all assays: Results are expressed as percent inhibition of control specific binding and the IC50 values (concentration causing a half-maximal inhibition of control specific binding) are determined by non-linear regression analysis using Hill equation curve fitting. The inhibition constants (Ki) were calculated from the Cheng Prusoff equation Ki=IC50/(1+(L/KD)), where L equals the concentration of radioligand in the assay) and KD equals the affinity of the radioligand for the receptor.
CHO cells expressing approximately 800 fmol/mg human recombinant D2 receptors were generated standard stable transfection techniques. […] Total binding was determined in the presence of buffer and non-specific binding was determined in the presence of 10 μM haloperidol. The mixture was incubated for 30 minutes at 37° C., cooled briefly on ice. Bound and free radioactivity was separated by vacuum filtration on GF/C filters pretreated with 0.1% Polyetyleneime (PEI) and filters were counted in a scintillation counter.

alpha-1 adrenoceptors = experiment: Alpha-1 adrenoceptor binding ([3H]Prazosin); parameters: species or system rat
Description: as §1
Chinese hamster ovary (CHO) cell lines expressing rat alpha1d and Baby hamster Kidney (BHK) cells expressing bovine alpha1a were generated using standard stable transfection techniques. The Rat-1 cell line expressing the hamster alpha1b receptor was obtained from University of Utah, Salt Lake City, Utah. […] Total binding was determined using assay buffer and non-specific binding was defined in the presence of 1 μM WB-4101 for all subtypes of alpha1 receptors. […] In all assays bound and free radioactivity were separated by vacuum filtration on GF/B filters pretreated with Polyetyleneimine (PEI) and counted in a scintillation counter.
By this method, the inhibition by drugs of the binding of [^3H]Prazosin (0.25 nM) to alpha-1 receptors in membranes from rat brain is determined in vitro. […]

human D2 receptor [2] = biological target: T2, human D2 receptor; experiment: DA D2 efficacy assay, inhibition of D2 mediated inhibition of cAMP formation in CHO cells; format: cell-based
Description: The ability of the compounds to inhibit the D2 receptor mediated inhibition of cAMP formation in CHO cells transfected with the human D2 receptor was measure as follows.
Cells were seeded in 96 well plates at a concentration of 8000 cells/well 3 days prior to the experiment. On the day of the experiment the cells were washed once in preheated G buffer (1 mM MgCl2, 0.9 mM CaCl2, 1 mM IBMX in PBS) and the assay was initiated by addition of 100 μl of a mixture of 1 μM quinpirole, 10 μM forskolin and test compound in G buffer. The cells were incubated 20 minutes at 37° C. and the reaction was stopped by the addition of 100 μl S buffer (0.1 M HCl and 0.1 mM CaCl2) and the plates were placed at 4° C. for 1 hour. 68 μl N buffer (0.15 M NaOH and 60 mM NaAc) were added and the plates were shaken for 10 minutes. 60 μl of the reaction were transferred to cAMP FlashPlates (DuPont NEN) containing 40 μl 60 mM NaAc pH 6.2 and 100 μl IC mix (50 mM NaAc pH 6.2, 0.1% NaAzid, 12 mM CaCl2, 1% BSA and 0.15 μCi/ml ^125I-cAMP) were added. Following an 18-hour incubation at 4° C. the plates were washed once and counted in a Wallac TriLux counter.

5-HT2A receptors = biological target: T3, 5-HT2A receptors (Homo sapiens, UniProt P28223); experiment: Serotonin 5-HT2A efficacy assay (Ca2+ fluorescence, CHO cells); format: cell-based
T3 construct: expressed in transfected cells; host or cells: CHO cells
Description: 2 or 3 days before the experiment, CHO cells expressing 250 fmol/mg S-HT2A receptors are plated at a density sufficient to yield a mono-confluent layer on the day of the experiment. The cells are dye loaded (Ca^2+-kit from Molecular Devices and using Hank's balanced salt w/o phenol red, added 20 mM HEPES and pH adjusted to 7.4 with 2M NaOH as assaybuffer) for 60 minutes at 37° C. in a 5% CO2 incubator at 95% humidity. Lacer intensity is set to a suitable level to obtain basal values of approximately 8000-10000 fluorescence units. The variation in basal fluorescence should be less than 10%. EC50 values are assessed using increasing concentrations of test compound covering at least 3 decades. IC50 values are assessed challenging the same range of concentrations of test substances with EC85 of 5-HT. Test substances are added to the cells 5 minutes before the 5-HT. […] Maximum inhibition is the level of inhibition the curve reaches. It is expressed as the percentage inhibition at that level and used to distinguish full and partial antagonists.

[3] = QT-interval in the alpha-chloralose anaesthetised rabbit; format: in vivo
Description: The model described in the following was originally designed as a proarrhytmic model by Carlsson et al, [J Cardiovasc Pharmacol. 1990;16:276-85.] and has been modified to fit into screening set-up as described below under “animal preparation”.
Male rabbits (HsdIf:NZW, outbreed) weighing 2.0-2.8 kg were purchased from Harlan (The Netherlands). Individual body weights were measured and recorded on the day of experiment. […]
ECG, blood pressure and HR were continuously recorded on a Maclab 8/s using the Chart software v3.6.1 for the Macintosh computer. […] Effects on the electrocardiogram (PQ-, QRS-, QT-, QTc-intervals and heart rate) and mean arterial blood pressure (MAP) were recorded and measured electronically.

human D1 receptors [4] = biological target: T4, human D1 receptors (Homo sapiens, UniProt P21728); experiment: DA D1 receptor binding ([3H]-SCH23390, Cerep); parameters: host or cells: CHO cells (membranes)
Description: For all assays: Results are expressed as percent inhibition of control specific binding and the IC50 values (concentration causing a half-maximal inhibition of control specific binding) are determined by non-linear regression analysis using Hill equation curve fitting. The inhibition constants (Ki) were calculated from the Cheng Prusoff equation Ki=IC50/(1+(L/KD)), where L equals the concentration of radioligand in the assay) and KD equals the affinity of the radioligand for the receptor. Affinities towards human D1 receptors were determined at the contract laboratory Cerep using the catalog reference assay no 803-1h. Membranes from CHO cells expressing human recombinant D1 receptors were used. 0.3 nM [^3H]-SCH23390 was used as radioligand and compounds were tested in a serial dilution concurrently with the reference compound SCH23390 in order to assess the assay suitability. Aliqouts were incubates at 22° C. for 60 min and bound radioactivity are measured with a liquid scintillation counter. Specific control binding to the D1 receptors was defined as the difference between the total binding determined without compound present and the non-specific binding determined in the presence of 1 μm SCH 23390.

human D1 receptors [5] = biological target: T4, human D1 receptors; experiment: DA D1 efficacy assay, inhibition of D1 mediated cAMP formation in CHO cells; format: cell-based; parameters: expressed in transfected cells; host or cells: CHO cell line generated in-house
Description: The ability of the compounds to inhibit the D1 receptor mediated cAMP formation in a CHO cell line generated in-house stably expressing the human recombinant D1 receptor was measured as follows. Cells were seeded in 96-well plates at a concentration of 11000 cells/well 3 days prior to the experiment. On the day of the experiment the cells were washed once in preheated G buffer (1 mM MgCl2, 0.9 mM CaCl2, 1 mM IBMX in PBS) and the assay was initiated by addition of 100 μl of a mixture of 30 nM A68930 and test compound diluted in G buffer. The cells were incubated for 20 minutes at 37° C. and the reaction was stopped by the addition of 100 μl S buffer (0.1 M HCl and 0.1 mM CaCl2) and the plates were placed at 4° C. for 1 hour. 68 μl N buffer (0.15 M NaOH and 60 mM NaAc) was added and the plates were shaken for 10 minutes. 60 μl of the reaction were transferred to cAMP FlashPlates (DuPont NEN) containing 40 μl 60 mM NaAc pH 6.2 and 100 μl IC mix (50 mM NaAc pH 6.2, 0.1% NaAzid, 12 mM CaCl2, 1% BSA and 0.15 μCi/ml ^125I-cAMP) were added. Following an 18-hour incubation at 4° C. the plates were washed once and counted in a Wallac TrLux counter.

T1 sequence (P10635 whole entry): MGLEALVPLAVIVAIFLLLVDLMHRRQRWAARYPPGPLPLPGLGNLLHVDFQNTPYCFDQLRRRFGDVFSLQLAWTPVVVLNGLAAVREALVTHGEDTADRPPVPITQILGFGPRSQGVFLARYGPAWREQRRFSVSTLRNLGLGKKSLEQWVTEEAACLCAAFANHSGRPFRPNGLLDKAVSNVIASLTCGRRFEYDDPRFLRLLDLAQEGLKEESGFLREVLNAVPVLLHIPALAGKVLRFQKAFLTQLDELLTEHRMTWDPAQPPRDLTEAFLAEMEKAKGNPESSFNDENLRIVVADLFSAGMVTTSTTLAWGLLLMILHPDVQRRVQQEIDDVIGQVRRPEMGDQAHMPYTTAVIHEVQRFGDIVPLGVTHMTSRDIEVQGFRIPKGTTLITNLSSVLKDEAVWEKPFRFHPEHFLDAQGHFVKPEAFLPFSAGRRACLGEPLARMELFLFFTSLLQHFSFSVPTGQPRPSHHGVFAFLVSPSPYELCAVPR
T4 sequence (P21728 whole entry): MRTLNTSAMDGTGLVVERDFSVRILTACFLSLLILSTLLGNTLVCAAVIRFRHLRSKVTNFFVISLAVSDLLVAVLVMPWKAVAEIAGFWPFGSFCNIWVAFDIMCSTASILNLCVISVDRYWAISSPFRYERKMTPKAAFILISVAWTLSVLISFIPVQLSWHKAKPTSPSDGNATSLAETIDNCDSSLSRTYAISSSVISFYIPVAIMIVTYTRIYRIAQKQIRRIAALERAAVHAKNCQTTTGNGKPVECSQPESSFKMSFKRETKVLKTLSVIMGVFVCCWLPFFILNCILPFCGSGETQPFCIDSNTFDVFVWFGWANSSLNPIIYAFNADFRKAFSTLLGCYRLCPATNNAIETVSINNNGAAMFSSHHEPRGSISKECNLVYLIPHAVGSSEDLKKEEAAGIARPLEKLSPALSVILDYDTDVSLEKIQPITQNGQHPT
T2 sequence (P14416 whole entry): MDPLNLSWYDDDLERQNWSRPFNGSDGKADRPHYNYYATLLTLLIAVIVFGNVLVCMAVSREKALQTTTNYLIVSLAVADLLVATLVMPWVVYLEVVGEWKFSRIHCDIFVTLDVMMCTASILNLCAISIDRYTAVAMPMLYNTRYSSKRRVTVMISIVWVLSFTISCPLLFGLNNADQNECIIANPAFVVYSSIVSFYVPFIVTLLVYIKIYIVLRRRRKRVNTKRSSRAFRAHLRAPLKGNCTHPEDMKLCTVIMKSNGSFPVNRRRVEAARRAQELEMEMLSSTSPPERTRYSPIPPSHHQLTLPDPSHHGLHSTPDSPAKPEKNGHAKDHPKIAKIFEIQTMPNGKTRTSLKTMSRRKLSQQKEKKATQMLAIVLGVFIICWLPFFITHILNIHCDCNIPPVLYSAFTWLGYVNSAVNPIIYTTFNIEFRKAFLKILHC
T3 sequence (P28223 whole entry): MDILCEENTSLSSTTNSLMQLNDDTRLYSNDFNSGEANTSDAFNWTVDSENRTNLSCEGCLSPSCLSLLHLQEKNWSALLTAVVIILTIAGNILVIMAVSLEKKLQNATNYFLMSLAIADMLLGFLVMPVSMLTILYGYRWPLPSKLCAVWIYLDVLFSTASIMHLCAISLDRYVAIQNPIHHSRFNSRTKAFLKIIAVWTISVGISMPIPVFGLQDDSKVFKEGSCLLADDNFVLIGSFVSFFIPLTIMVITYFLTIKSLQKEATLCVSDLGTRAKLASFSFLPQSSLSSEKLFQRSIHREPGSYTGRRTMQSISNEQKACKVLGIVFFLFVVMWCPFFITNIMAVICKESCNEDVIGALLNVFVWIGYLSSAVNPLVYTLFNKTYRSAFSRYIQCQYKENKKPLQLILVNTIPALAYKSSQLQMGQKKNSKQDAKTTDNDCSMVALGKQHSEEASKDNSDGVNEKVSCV

| inhibition of CYP2D6 (human CYP2D6) | affinity for dopamine D2 receptors (human D2 receptor [1]) | affinity for alfa1 adrenoceptors (alpha-1 adrenoceptors) | functional activity at dopamine D2 receptors (human D2 receptor [2]) | functional activity at serotonin 5-HT2a receptors (5-HT2A receptors) | affinity for dopamine D1 receptors (human D1 receptors [4]) | functional activity at dopamine D1 receptors (human D1 receptors [5]) | SMILES | D1/D2 antagonism in vitro (D1/D2) | D1 and D2 antagonism in vivo (D1 and D2) | 5-HT2 antagonism (5-HT2) | affinity for α1 adrenoceptors (α1 adrenoceptors) | prolonging effect on the QT-interval in the electrocardiogram (ECG) [3] |
| --- | --- | --- | --- | --- | --- | --- | --- | --- | --- | --- | --- | --- |
| considerable more potent |  |  |  |  |  |  | CC1(C)CN([C@@H]2C[C@@H](c3ccccc3)c3ccc(Cl)cc32)CCN1 (racemic) [racemate of the compound of the present invention, trans-1-(6-chloro-3-phenylindan-1-yl)-3,3-dimethylpiperazine] |  |  |  |  |  |
|  |  |  |  |  |  |  | CN1CCN([C@@H]2C[C@@H](c3ccccc3)c3ccc(Cl)cc32)CC1(C)C [(−)-38] | potent D1/D2 antagonists showing some D1 selectivity | equipotent as D1 and D2 antagonist | potent 5-H T2 antagonist | high affinity |  |
| relatively weak inhibitor | high affinity | high affinity | antagonist | antagonist | high affinity | antagonist | CC1(C)CN([C@@H]2C[C@@H](c3ccccc3)c3ccc(Cl)cc32)CCN1 [Compound I, trans-1-((1R,3S)-6-chloro-3-phenylindan-1-yl)-3,3-dimethylpiperazine] |  |  |  |  | relatively low prolonging effect |
